Experimental data published in US6613317B1, “Volatile attractants for diabrotica species” (priority 1988, dated 2003).
Values joined by “and” are separate entries in the source; they are usually repeats but may differ in a detail not shown here. Equal values may be shown once. Marks after values point to notes of the source that are not given here.

What was measured:
NCR = assay: Limit of response rating of squash blossom volatiles on sticky traps (Example 5); type: in vivo, Diabrotica barberi; conditions: 24 hour; four replicate traps; 0.01 mg to 200 mg
Description: (§1) Over 40 individual volatile chemicals have been isolated from Cucurbita maxima blossoms and circa 25 of these have been unequivocally identified (Andersen, J. F., J. Agric. Food Chem., 35:60-62 (1987): Andersen, J. F. and Metcalf, R. L., J. Chem. Ecol., 12:687-699 (1986)). The major odor components were evaluated as potential attractants for adult Diabrotica species using cylindrical sticky traps baited with dental cotton wicks (Metcalf, R. L., and Lampman, R. L., Paper submitted to J. Econ. Entomol., (1988)) containing from 0.01 mg to 200 mg of volatile compound.

SCR = assay: as above; type: in vivo, Diabrotica undecimpunctata howardi; conditions: 24 hour; four replicate traps; 0.01 mg to 200 mg
Description: as §1

WCR = assay: as above; type: in vivo, Diabrotica virgifera virgifera; conditions: 24 hour; four replicate traps; 0.01 mg to 200 mg
Description: as §1

D. barberi = assay: Sticky trap attraction in prairie habitat, Trelease Woods (Example 2); type: in vivo, Diabrotica barberi; conditions: 100 mg per trap, n = 4
Description: (§2) The candidate lures in all experiments were purchased commercially and exceeded 98% purity. The test chemicals were applied by capillary micropipettes to cotton dental wicks which were attached to the tops of 1.0 liter cylindrical paper cartons covered with TangleTrap™ (Tanglefoot Co., Grand Rapids, Mich.). The sticky trap techniques used were as described in Example 1. Cinnamyl alcohol and para-methoxycinnamaldehyde, which are solids, were dissolved in glass-distilled acetone prior to dosing the cotton wicks. […]. Control traps had untreated cotton wicks. Four replicates of treated and untreated traps were randomly positioned 10 meters apart on top of 1 m high posts along the border of a eight foot wide strip cut through the middle of a 4.05 ha relict prairie at Trelease Woods (ca. two miles northeast of Urbana, Ill.). The field consisted primarily of Andropogon gerardii Vitman (big bluestem) and a variety of composites. The tests were conducted in mid-August of two years and were timed to coincide with the presence of D. cristata and D. barberi adults in the flower heads of Canada thistle (Carduus arvensis Robson). In the second year, several new attractants of D. v. virgifera and D. barberi were tested in Trelease Woods and along the edge of a 0.8 ha field of hybrid corn located at the Pomology South Farms, Urbana, Ill. Attraction of Diabrotica species to the various lures was measured by the mean number of beetles caught after 24-h. On one date in late August of the first year, D. cristata and D. barberi were removed from the traps and sexed in the laboratory. The significance of treatments in all tests was determined by an analysis of variance and the individual means were separated by Duncan's multiple range test (Statistical Package for Social Science, Nie, et al., SPSS: statistical package for the social sciences, 2nd ed. McGraw-Hill, New York (1975). Data were logarithmically transformed for statistical analysis and the means and standard deviations are presented for the untransformed data.

D. cristata = assay: as above; type: in vivo, Diabrotica cristata; conditions: 100 mg per trap, n = 4
Description: as §2

D. v. virgifera = assay: as above; type: in vivo, Diabrotica virgifera virgifera; conditions: 100 mg per trap, n = 4
Description: as §2

D. u. howardi = assay: as above; type: in vivo, Diabrotica undecimpunctata howardi; conditions: 100 mg per trap, n = 4
Description: as §2

[1] = test system: southern corn rootworm (SCR) adults; assay: Sticky trap attraction in sweet corn plots (Example 1); type: in vivo, Diabrotica undecimpunctata howardi; conditions: August 4, second year, each compound 20 mg per trap
Description: (§3) The attraction of Diabrotica species to single-component and multicomponent lures was evaluated in corn fields. The field experiments on attraction of SCR and WCR adults were conducted in 0.405-ha (1-acre) plots of “Illini Xtra Sweet” corn grown on the University of Illinois South Farms at Urbana, Ill., over a two year period. Most of the tests were conducted in August to correspond with the peak silk-feeding and oviposition periods of corn rootworm adults in central Illinois. In both years, the sweet corn plot was adjacent to a 0.405-ha trap crop of C. maxima cultivar “Blue Hubbard”, to provide high densitites of SCR and WCR adults in the corn plots (Howe, et al., Environ. Entomol., 5:745-751 (1976), Lampman, et al., J. Chem. Ecol., 13:959-975 (1987).
(§4) Attraction of Diabrotica species to volatile compounds was measured by the average number of beetles cought during a 24-h period on 1.0-liter cylindrical paper cartons (15.2 cm high, 27.9 cm circumference) which were evenly coated with clear insect adhesive, TangleTrap™ (Tanglefood Co., Grand Rapids, Mich.) The candidate attractants were applied by capillary micropiettes to cotton dental wicks (13 mm long by 6 mm diameter) that were previously impregnated with mineral oil to prolong volatilization. The chemicals were purchased from Aldrich Chemical Co., (Milwaukee, Wis.) and assayed by gas chromatography as >97% pure. Indole, a solid at ambient temperatures (m.p. 52-54° C.), was dissolved in glass-distilled acetone before dosing the cotton wicks. For dosage-acticity tests, the various components were mixed in equal quantities by weight and diluted to the appropriate dosage with acetone. Treated and untreated (control) wicks were attached to the top of the paper cartons with TangleTrap™ and the inverted traps were placed on 1-m-high posts between the sweet corn rows. Four replicates of each treatment and a control were conducted in a randomized complete block desgin. The sticky traps within a block (ca. 50-m row of corn) were 5-10 m apart (depending on the number of treatments in a particular test) and the blocks were 3 m apart. The traps were baited and placed in the field between 1000 and 1300 hours and beetle counts were taken after 24 h. The significance of treatments was determined by analysis of variance and the individual means were separated by Duncan's multiple range test (Statistical Package for Social Sciences (SPSS) (Nie, et al., SPSS: statistical package for the social sciences, 2nd ed. McGraw-Hill, N.Y. (1975)). Student's t test was used for comparisons of two means (Sokal, et al., Biometry, Freeman, San Francisco (1969). Significance levels were set at P=0.05 at all statistical analyses.
(§5) The initial field test in August of the first year evaluated the response of SCR and WCR adults of a mixture of veratrole (V), indole (I), phenylacetaldehyde (P), trans-anethole (A), and eugenol (E) (=VIPAE mixture), as well as to the individual components. Each component in the VIPAE mixture was present at a dosage of 20 mg per trap and was compared with the individual components at 100 mg per trap. The response of SCR and WCR adults to a range of VIPAE doses, 1-300 mg, was conducted on the following day. Fifty SCR adults were removed from each 100-mg VIPAE trap, and returned to the laboratory for sex determination. Additional analyses in August evaluated the reduction in trap catches produced by the sequential removal of the individual components from the VIPAE lure. After the primary components of the initial lure were determined, a modified multicomponent lure consisting of veratrole, indole, and phenylacetaldehyde (=VIP mixture) was compared with its individual components to determine whether the attraction of SCR adults was the result of interactive or additive factors. The attraction and synergistic response of SCR adults of the VIP mixture was verified by tests conducted in August of the following year. […]

[2] = test system: western corn rootworm (WCR) adults; assay: as above; type: in vivo, Diabrotica virgifera virgifera; conditions: August 4, second year, each compound 20 mg per trap
Description: as §3, §4, §5

In the case of `COc1ccc(C=O)cc1` [p-methoxybenzaldehyde], the “Attractant Rating NCR (by limit of response)” value (NCR) is reported as 0 (200), the “Attractant Rating SCR (by limit of response)” value (SCR) is reported as 0 (200) and the “Attractant Rating WCR (by limit of response)” value (WCR) is reported as 0 (200).

In the case of `O=Cc1ccccc1` [benzaldehyde], the “Attractant Rating NCR (by limit of response)” value (NCR) is reported as 0 (200), the “Attractant Rating SCR (by limit of response)” value (SCR) is reported as 0 (200) and the “Attractant Rating WCR (by limit of response)” value (WCR) is reported as 0 (200).

`COc1ccc(OC)cc1` [1,4-dimethoxybenzene] was tested, and the “Attractant Rating NCR (by limit of response)” value (NCR) was 0 (200), the “Attractant Rating SCR (by limit of response)” value (SCR) was 0 (200) and the “Attractant Rating WCR (by limit of response)” value (WCR) was 0 (200).

For `CC=Cc1ccc(O)c(OC)c1` [Isoeugenol], the “Mean number of D. barberi per sticky trap per day (±standard deviation)” value (D. barberi; August 18, first year) was 31.8 ± 26.7^b per sticky trap per day, the “Mean number of D. barberi per sticky trap per day (±standard deviation)” value (D. barberi; August 27, first year) was 8.5 ± 3.4^b per sticky trap per day and the “Mean number of D. cristata per sticky trap per day (±standard deviation)” value (D. cristata; August 18, first year) was 10.5 ± 12.6^b per sticky trap per day. The “Mean number of D. cristata per sticky trap per day (±standard deviation)” value (D. cristata; August 27, first year) was 2.5 ± 1.7^b per sticky trap per day, the “Mean number of D. v. virgifera per sticky trap per day (±standard deviation)” value (D. v. virgifera; August 18, first year) was 0.0^a per sticky trap per day and the “Mean number of D. v. virgifera per sticky trap per day (±standard deviation)” value (D. v. virgifera; August 20, first year) was 0 per sticky trap per day. For the same compound, the “Mean number of D. v. virgifera per sticky trap per day (±standard deviation)” value (D. v. virgifera; August 27, first year) was 0 per sticky trap per day, the “Mean number of D. u. howardi per sticky trap per day (±standard deviation)” value (D. u. howardi; August 18, first year) was 0.0^a per sticky trap per day and the “Mean number of D. u. howardi per sticky trap per day (±standard deviation)” value (D. u. howardi; August 20, first year) was 0.5 ± 1.0^a per sticky trap per day and 1.0 ± 0.8^a per sticky trap per day. The “Mean number of D. u. howardi per sticky trap per day (±standard deviation)” value (D. u. howardi; August 27, first year) was 0.5 ± 1.0^a per sticky trap per day.

With `CC/C=C\CCO` [cis-3-hexenol] the “Attractant Rating NCR (by limit of response)” value (NCR) was 0 (200), the “Attractant Rating SCR (by limit of response)” value (SCR) was 0 (200) and the “Attractant Rating WCR (by limit of response)” value (WCR) was “+1 (30-100)”.

For `CCC/C=C/CO` [trans-2-hexenol], the “Attractant Rating NCR (by limit of response)” value (NCR) was 0 (200), the “Attractant Rating SCR (by limit of response)” value (SCR) was “+1 (30-100)” and the “Attractant Rating WCR (by limit of response)” value (WCR) was “+1 (30-100)”.

`COc1ccccc1O` [Guaiacol, 2-methoxyphenol] was tested, and the “relative percent activity (SCR) as compared with the highest mean value for the test date” value [1] was 2%, the “Mean number of SCR per trap (±standard deviation)” value ([1]; n = 4) was 0.8 ± 0.6 per trap and the “relative percent activity (WCR) as compared with the highest mean value for the test date” value [2] was 39%. The “Mean number of WCR per trap (±standard deviation)” value ([2]; n = 4) was 20.0 ± 8.9 per trap, the “Mean number of D. barberi per sticky trap per day (±standard deviation)” value (D. barberi; August 20, first year) was 4.3 ± 2.1^b per sticky trap per day and the “Mean number of D. cristata per sticky trap per day (±standard deviation)” value (D. cristata; August 20, first year) was 6.0 ± 2.6^b per sticky trap per day. For the same compound, the “Mean number of D. v. virgifera per sticky trap per day (±standard deviation)” value (D. v. virgifera; August 20, first year) was 0 per sticky trap per day and the “Mean number of D. u. howardi per sticky trap per day (±standard deviation)” value (D. u. howardi; August 20, first year) was 0.8 ± 1.0^a per sticky trap per day.
